# Reference: patent US20090312377A1, “DERIVATIVES OF BENZO[D]ISOTHIAZOLES AS HISTONES DEACETYLASE INHIBITORS” (UNIVERSIDAD DE GRANADA, priority 2006, published 2009)
# Tested on: HDAC (HeLa nuclear extract, rich in HDAC activity)
# Test: HDAC AK-501 colorimetric (Color de Lys) inhibition assay with HeLa nuclear extract
# Assay type: biochemical, human
# Settings: Color de Lys substrate 0.2 mM final, 20 minutes at 37° C., reading at 405 nm, from straight line of 5 concentrations
# Experimental: The inhibitory activity of the compounds obtained in the previous Examples 1, 2, 3 and 5 was evaluated, for which the HDAC AK-501 colorimetric titration kit for inhibition, supplied by Biomol, was used, following the indicated protocol.
# The process of the assay was carried out in two steps. In the first step, the Color de Lys® substrate, containing an acetylated lysine group, was incubated with a sample of HeLa (human cervical cancer cell line) nuclear extract, rich in HDAC activity. In the second step, the previous mixture was treated with the Color de Lys® developer, which caused an increase in the quantifiable color intensity at 405 nm. There is a linear correlation between the absorption and the deacetylation of lysine within instrumental limits. The addition of an HDAC inhibitor gives rise to a lower deacetylation of the Color de Lys® substrate and to a decrease in the intensity at 405 nm.
# The operating procedure was the following: • 1. The buffer, diluted (250 nM) TSA (Trichostatin A) and the inhibitor to be assayed were added at the desired concentrations in the suitable wells of the plate (See Table below). • 2. The Hela extract was added, except to the enzyme-free control. • 3. The plate and the Color de Lys® substrate were thermostatted at 37° C. • 4. The reactions were started adding the 0.4 mM substrate (final concentration of the substrate 0.2 mM) in each well and it was stirred. • 5. A reaction time of 20 minutes at 37° C. was allowed. • 6. The Color de Lys® developer, prepared approximately 30 minutes before its use, was added (the developer was used diluted 20 times with an amount of TSA resulting in a final concentration of 1 μM in the assay). It was allowed to react for 15 minutes at 37° C. • 7. The reading was made at 405 nm.
# (×5) and (×2) indicate the dilution factors.
# The result of the reading using 5 different concentrations taken between 0.1-2.0 mM of each inhibitor allowed obtaining a straight line of concentrations versus enzymatic activity. The concentration necessary to deduce the 50% enzymatic activity (IC50) was calculated from the equation of said line.
row,IC50 [nM],SMILES
1,250,"O=C(CCCCCCN1C(=O)c2ccccc2S1(=O)=O)NO [Compound 2, 7-(1,1-dioxide-3-oxo-2H-benzo[d]isothiazol-2-yl)-N-hydroxyheptanamide]"
2,1150,"O=C(NO)c1ccc(CN2C(=O)c3ccccc3S2(=O)=O)cc1 [Compound 3, 4-[(1,1-dioxide-3-oxo-2H-benzo[d]isothiazol-2-yl)methyl]-N-hydroxybenzamide]"
3,1500,"O=C(CCCCCN1C(=O)c2ccccc2S1(=O)=O)NO [Compound 1, 6-(1,1-dioxide-3-oxo-2H-benzo[d]isothiazol-2-yl)-N-hydroxyhexanamide]"
4,210,"O=C(CCCCCOc1nsc2ccccc12)NO [Compound 5, 6-[(benzo[d]isothiazol-3-yl)oxa]-N-hydroxyhexanamide]"
